Laboratory results: patent US7122326B2 (Universite Louis Pasteur, priority 2001, dated 2006)
“Also recorded” adds a separate entry of the source. Like-named read-outs stand apart in the source and are kept apart here.

What was measured:
[1] = tested on: XA transport system; assay: XA transport in differentiated NCB-20 cells; assay type: cell-based
Experimental: The cell culture was prepared by using a culture dish of NCB-20 cells at 80% confluence. The culture medium was removed and replaced with 10 ml of DMEM supplemented with 10% FCS. Cells were then detached and suspended by repeated passage of the medium through a 2 mm gauge needle. Cells were then counted in a hemocytometer. The final suspension was adjusted to a cell density of 3.10^4 cells/ml in DMEM medium supplemented with 10% FCS and 1 mM cAMP. Petri dishes were seeded with 2 ml of this suspension and incubated at 37° C. in a moisture-saturated CO2 atmosphere. Cells were used four days after inoculation.
The culture medium of 4-day NCB-20 cell cultures differentiated in cAMP was replaced by one of the buffer solutions described hereinabove (Krebs with or without Na^+, to respectively evaluate Na^+-dependent active transport and passive transport, which occurs mainly through diffusion) according to the type of experiment planned. Culture dishes were placed in a water bath at 37° C. for 10 minutes. The buffer was then replaced by the same buffer solution containing [^3H]-XA and XA at concentrations ranging from […]. [^3H]-XA was present at very low concentration and served only as a tracer of the cold (non-radiolabelled) XA. After 1 minute of incubation, the solutions were aspirated and the cells washed three times for 10 seconds with 1 ml of the same buffer (Krebs with or without Na^+), kept on ice. Active transport requires energy (ATP) and is markedly slowed at temperatures below 37° C. The washed cell layer was frozen in dishes then, the next day, distilled water was added to obtain a solution of cellular debris containing the intracellular radiolabel ([^3H]-XA). Freezing facilitated homogenization by repeated passage of the solution through a pipette. A 900 μl aliquot was added to scintillation fluid (Rotiszint®, 4 ml). The remainder of the solution was sampled to assay protein by the BCA method (Uptima). The radioactivity measured in the scintillation counter was converted by means of a suitable calibration curve into picomoles of XA taken up by the cells per mg of protein.
For each incubation time, transport was measured on nine dishes of NCB-20 cells with Na^+ and without Na^+. Ten different time points were studied: 0-10-30 seconds and 1, 2, 3, 5, 8, 10, 12 minutes. Four different experiments were carried out.
For each XA concentration, XA transport was measured on nine dishes of NCB-20 cells with Na^+ and nine dishes without Na^+. Seven different concentrations were tested: 1-5-12.5-25-50-100-200 μM. Four independent experiments were carried out.
Four milliliters of scintillator were added to the tubes containing 900 μl of the cell suspension obtained. The control tube contained 900 μl of doubly-distilled water, and the tubes used to measure specific activity contained 10 μl of the radioactive solutions used as reagent during the experiment and 890 μl of doubly-distilled water. The tubes were closed, vortexed and left overnight at 4° C. before being counted in the scintillation counter. This count measures intracellular radioactivity which is directly proportional to the quantity of XA that entered the cell through passive or active transport. To calculate the amount of active transport, passive transport (Krebs without Na^+) is simply subtracted from total transport (Krebs with Na^+).
Other endogenous molecules which might be transported by the XA transporter were tested. […] The results are shown in the histogram in FIG. 34 as the percentage entering the cells relative to transport in the presence of radiolabelled XA alone (=100%).

[2] = rat, in vivo
Experimental: Methods: Rats were given an i.p. injection of XA 50 mg/kg and then sacrificed 30 minutes later by microwave irradiation. Brains were dissected and XA was assayed in 20 different regions of the brain.

[3] = tested on: rat; assay: Object recognition test; details: in vivo
Experimental: Ennaceur and Delacour, Behav. Brain Res. 1988, 31: 47–59.
Doses of 37.5 and 75 mg/kg i.p. were used.

[4] = tested on: rat; details: in vivo
[5] = tested on: rat; assay: Reversal of XA-induced sedation in the open field test; details: in vivo
Experimental: Study of reversal of sedation induced by XA 100 mg/kg i.p

[6] = tested on: rat; details: in vivo; cited from earlier work
[7] = tested on: rat; details: in vivo; cited from earlier work; remark: listed apart in the source
[8] = in vivo, ip; cited from earlier work
[9] = tested on: xanthurenic acid binding site(s); assay: [3H]-XA binding to synaptic membranes, without ions; set-up: species or system rat
[10] = tested on: rat; assay: Dopaminergic stereotypies after intracerebral injection; details: in vivo
Experimental: The product was injected by the intracerebroventricular route (i.c.v.) on the one hand, and in defined brain structures on the other hand: ventral tegmental area (A10), substantia nigra (A9) or nucleus accumbens. […] After disappearance of the stereotypies (30±15 minutes), reinjection of XA induced the same effects.
The following stereotypies are observed: licking, chewing, hyperactivity, exploring, standing, grooming, burrowing, stretching and sniffing.
These behaviors developed two minutes after the intracerebral injection and lasted for 30 to 40 minutes. One hour after such behaviors disappeared, they could be re-induced by another injection.

[11] = tested on: rat; assay: Open field test of global reactivity (XA); details: in vivo
[12] = tested on: Grp 94 and calreticulin expression; details: cited from earlier work

With O=C(O)c1cc(O)c2cccc(O)c2n1 [XA, xanthurenic acid] the “increase of transport in the presence of sodium” value [1] was “about 20%”, the Km ([1]; read-out: Km of intracellular transport) was 105 µM and the “Brain regions where XA accumulated” value [2] was “accumulated primarily in the frontal and prefrontal cortex (PFC), temporal and parietal cortex, amygdala, dopaminergic nuclei and in the striatum”. The object recognition score [3] was “significant increase in the object recognition score”, the “amplitude of the EEG waves” value [4] was “reduction in the amplitude of the EEG waves” and the “decrease in body temperature” value [4] was −0.5 to −2 °C. It also gave a Grooming [5] of 4 ± 2, an Inner squares [5] of 19 ± 6 and an Outer squares [5] of 91 ± 17. For the same compound, the Standing [5] was 37 ± 14, the Total squares [5] was 110 ± 25 and the “analgesic effect in hotplate and tail flick tests” value [6] was “analgesic effect”. For the same compound, the ECG [7] was “does not modify the ECG”, the “latency time to onset of epileptic seizures” value [8] was “prolonged the latency time to onset of epileptic seizures” and the “kob (observed association rate)” value ([9]; pH 7.4) was 0.53 ± 0.16 min⁻¹. The “time to binding equilibrium” value ([9]; pH 7.4) was 10 to 15 min, the Kd ([9]; pH 7.4, read-out: Kd (saturation experiment)) was 743 nM and the IC50 ([9]; read-out: IC50, two site binding model, first site) was 300 nM. For the same compound, the IC50 ([9]; read-out: IC50, two site binding model, second site) was 57000 nM, the Kd ([9]; read-out: Kd=koff/kon) was ~330 nM and the stereotypies [10] was “dose-related stereotypies were observed; also recorded: induced dose-dependent stereotypies”. The “time to disappearance of the stereotypies” value [10] was 30 ± 15 min, the “doses to obtain an anxiolytic effect in animals” value [11] was “less than 50 mg/kg” and the “exploration of the center of the cage / open field” value [11] was “significantly increased; also recorded: promotes movement of the animal to the center of the lighted open field”. For the same compound, the “sedation in the open field test” value [11] was “absence of sedation”, the “expression of Grp 94 and of calreticulin” value [12] was “induces an increase in the expression” and the “xanthurenic acid concentrations required to produce these effects” value [12] was “in the millimolar range”.
